Assay results as given in ChEMBL document CHEMBL1152205, “Dihydropyrazolopyrimidine inhibitors of K(V)1.5 (I(Kur))” (Bioorg Med Chem Lett, 2008).

target: T1, Potassium voltage-gated channel subfamily A member 5 (Homo sapiens, UniProt P22460); assay: Inhibition of human Kv1.5 channel expressed in mouse L929 cells by EP voltage clamp technique; type: cell-based; conditions: not given
T1 sequence (P22460 whole entry): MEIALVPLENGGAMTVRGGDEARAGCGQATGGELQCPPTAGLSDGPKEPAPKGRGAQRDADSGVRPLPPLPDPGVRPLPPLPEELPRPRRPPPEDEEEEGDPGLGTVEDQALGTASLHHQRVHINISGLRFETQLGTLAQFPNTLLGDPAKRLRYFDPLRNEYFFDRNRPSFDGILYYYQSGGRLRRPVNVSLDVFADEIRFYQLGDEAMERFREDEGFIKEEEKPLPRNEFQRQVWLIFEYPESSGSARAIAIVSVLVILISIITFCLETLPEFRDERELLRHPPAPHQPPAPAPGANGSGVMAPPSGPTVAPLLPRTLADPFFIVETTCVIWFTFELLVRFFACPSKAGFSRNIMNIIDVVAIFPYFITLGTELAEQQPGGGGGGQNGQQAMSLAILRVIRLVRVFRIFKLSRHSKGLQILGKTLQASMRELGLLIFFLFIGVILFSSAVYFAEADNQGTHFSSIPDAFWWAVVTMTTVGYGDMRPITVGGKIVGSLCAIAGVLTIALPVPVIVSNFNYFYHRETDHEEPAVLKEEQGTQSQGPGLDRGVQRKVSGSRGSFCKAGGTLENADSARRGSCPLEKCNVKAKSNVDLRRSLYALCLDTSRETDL

IC50 [nM]	Structure (SMILES)
170	CC1=C(C(=O)Nc2ccccc2)C(c2ccc(Cl)c(Cl)c2)n2nccc2N1 (configuration not stated)

target: T1, Potassium voltage-gated channel subfamily A member 5; assay: Inhibition of human Kv1.5 channel expressed in Xenopus oocytes at 3 uM by EP voltage clamp technique; type: cell-based; conditions: Oocyte

inhibition [%]	Structure (SMILES)
1	CC1=C(C(=O)N2CCN(c3ccc(F)cc3)CC2)C(c2ccc(C)s2)n2nccc2N1 (configuration not stated)
2	CC1=C(C(=O)N2CCN(c3ccc(F)cc3)CC2)[C@H](c2cccc(Cl)c2Cl)n2nccc2N1
29	CC1=C(C(=O)N2CCN(c3ccc(F)cc3)CC2)C(c2sccc2C)n2nccc2N1 (configuration not stated)
30	COc1cccc(C2C(C(=O)N3CCN(c4ccc(F)cc4)CC3)=C(C)Nc3ccnn32)c1 (configuration not stated)
11	CC1=C(C(=O)N2CCN(c3ccc(F)cc3)CC2)C(c2cccc(C#N)c2)n2nccc2N1 (configuration not stated)
2	COc1ccccc1C1C(C(=O)N2CCN(c3ccc(F)cc3)CC2)=C(C)Nc2ccnn21 (configuration not stated)
17	CC1=C(C(=O)N2CCN(C3CCCCC3)CC2)C(c2ccc(Cl)c(Cl)c2)n2nccc2N1 (configuration not stated)
27	CC1=C(C(=O)N2CCN(c3ccc(F)cc3)CC2)C(c2ccc(C)cc2)n2nccc2N1 (configuration not stated)
30	CC1=C(C(=O)N2CCN(c3ccc(F)cc3)CC2)C(c2ccccc2Cl)n2nccc2N1 (configuration not stated)
11	COc1ccc(C2C(C(=O)N3CCN(c4ccc(F)cc4)CC3)=C(C)Nc3ccnn32)cc1 (configuration not stated)
3	CC1=C(C(=O)N2CCN(c3ccc(F)cc3)CC2)C(c2cccnc2)n2nccc2N1 (configuration not stated)
17	Cc1nc2ccnn2c(-c2ccc(Cl)c(Cl)c2)c1C(=O)N1CCCCC1
26	CC1=C(C(=O)N2CCN(c3ccc(F)cc3)CC2)C(c2ccc3c(c2)OCO3)n2nccc2N1 (configuration not stated)
19	CC1=C(C(=O)N2CCN(c3ccc(F)cc3)CC2)[C@H](c2ccc(Cl)c(Cl)c2)n2nccc2N1
3	CC1=C(C(=O)N2CCN(c3ccc(F)cc3)CC2)C(c2ccccn2)n2nccc2N1 (configuration not stated)
24	CC1=C(C(=O)N2CCN(c3ccc(F)cc3)CC2)C(c2ccc([N+](=O)[O-])cc2)n2nccc2N1 (configuration not stated)
7	CC1=C(C(=O)N2CCN(c3ccc(F)cc3)CC2)C(c2ccc(C)o2)n2nccc2N1 (configuration not stated)

inhibition [%]	Structure (SMILES)
39	COC[C@H]1CCCN1C(=O)C1=C(C)Nc2ccnn2C1c1ccc(Cl)c(Cl)c1 (some centres not stated)
17	CC1=C(C(=O)N2CCOCC2)C(c2ccc(Cl)c(Cl)c2)n2nccc2N1 (configuration not stated)
4	CC1=C(C(=O)N2CCN(c3ccc(F)cc3)CC2)C(c2ccccc2[N+](=O)[O-])n2nccc2N1 (configuration not stated)
7	COc1cccc(C2C(C(=O)N3CCN(c4ccc(F)cc4)CC3)=C(C)Nc3ccnn32)c1OC (configuration not stated)
17	CC1=C(C(=O)N2CCN(c3ccc(F)cc3)CC2)C(c2cnc3ccccc3c2)n2nccc2N1 (configuration not stated)
29	CC1=C(C(=O)N2CCN(c3ccc(F)cc3)CC2)C(c2ccc3ccccc3n2)n2nccc2N1 (configuration not stated)
18	CC1=C(C(=O)N2CCN(c3ccc(F)cc3)CC2)C(c2cccc3c2OCO3)n2nccc2N1 (configuration not stated)
1	COc1ccc(C2C(C(=O)N3CCN(c4ccc(F)cc4)CC3)=C(C)Nc3ccnn32)cc1OC (configuration not stated)
17	Cc1nc2ccnn2c(-c2cccc(Cl)c2Cl)c1C(=O)N1CCN(c2ccc(F)cc2)CC1
5	CC1=C(C(=O)N2CCN(C)CC2)C(c2ccc(Cl)c(Cl)c2)n2nccc2N1 (configuration not stated)
7	CC1=C(C(=O)N2CCN(c3ccc(F)cc3)CC2)C(c2cccs2)n2nccc2N1 (configuration not stated)
37	CC1=C(C(=O)N2CCN(c3ccc(F)cc3)CC2)C(c2ccccc2C)n2nccc2N1 (configuration not stated)
14	CC1=C(C(=O)N2CCN(c3ccc(F)cc3)CC2)C(c2ccc(C#N)cc2)n2nccc2N1 (configuration not stated)
1	CC1=C(C(=O)N2CCN(c3ccc(F)cc3)CC2)C(c2ccco2)n2nccc2N1 (configuration not stated)
24	CC1=C(C(=O)N2CCN(c3ccc(F)cc3)CC2)C(c2ccccc2)n2nccc2N1 (configuration not stated)
15	CC1=C(C(=O)N2CCN(c3ccc(F)cc3)CC2)C(c2cccc([N+](=O)[O-])c2)n2nccc2N1 (configuration not stated)

target: T1, Potassium voltage-gated channel subfamily A member 5; assay: Inhibition of human Kv1.5 channel expressed in Xenopus oocytes at 10 uM by EP voltage clamp technique; type: cell-based; conditions: Oocyte

inhibition [%]	Structure (SMILES)
9	CC1=C(C(=O)Nc2cccnc2)C(c2ccc(Cl)c(Cl)c2)n2nccc2N1 (configuration not stated)
83	CC1=C(C(=O)Nc2ccccc2)C(c2ccc(Cl)c(Cl)c2)n2nccc2N1 (configuration not stated)

target: T1, Potassium voltage-gated channel subfamily A member 5; assay: Inhibition of human Kv1.5 channel expressed in mouse L929 cells at 1 uM by EP voltage clamp technique; type: cell-based; conditions: not given

inhibition [%]	Structure (SMILES)
48	CC1=C(C(=O)N2CCN(c3ccc(F)cc3)CC2)C(c2ccccc2C)n2nccc2N1 (configuration not stated)
